In patent US20070003976A1, “Car ligand-binding domain polypeptide co-crystallized with a ligand, and methods of designing ligands that modulate car activity” (SMITHKLINE BEECHAM CORPORATION, priority 2003, published 2007):

Molecular target: T1, human CAR LBD protein (Homo sapiens, UniProt Q14994)
T1 construct: made in house; host or cells: E. coli BL21 (DE3), pRSETA vector
T1 sequence (Q14994 103-348 isoform Q14994-2): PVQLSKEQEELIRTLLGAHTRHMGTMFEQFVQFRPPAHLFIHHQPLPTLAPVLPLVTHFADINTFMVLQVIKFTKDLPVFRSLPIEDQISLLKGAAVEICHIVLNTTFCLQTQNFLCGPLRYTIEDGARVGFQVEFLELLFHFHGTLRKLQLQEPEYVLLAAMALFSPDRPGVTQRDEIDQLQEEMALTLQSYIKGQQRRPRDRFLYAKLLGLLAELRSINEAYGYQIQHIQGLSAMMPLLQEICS
Test: Fluorescence Resonance Energy Transfer (FRET) Ligand Sensing Assay: CAR LBD / SRC-1 coactivator peptide interaction
Type: biochemical
Description: Screening of synthetic compound libraries with the purified CAR LBD protein by a Fluorescence Resonance Energy Transfer (FRET) Ligand Sensing Assay (Parks et al., 1999) was conducted to identify molecules that alter the basal interaction between a coactivator peptide and the CAR LBD protein. Briefly, the purified human CAR LBD protein was biotinylated and labeled with streptavidin-conjugated fluorophore allophycocyanin. The labeled CAR LBD protein was incubated with a test compound and with a peptide that included the second LXXLL binding motif of the nuclear coactivator SRC-1 (GenBank Accession No. U59302; amino acids 676-700) that was labeled with europium chelate. Data were collected with a WALLAC VICTOR™ fluorescence reader (available from PerkinElmer Life Sciences Inc., Boston, Mass., United States of America) in a time resolved mode and the fluorescence ratio calculated.

## NC(=O)c1ccc2nc(NC(c3ccccc3)c3ccccc3)n(CCc3ccccc3)c2c1 [Compound 1, 2-(benzhydrylamino)-1-(2-phenylethyl)-1H-benzimidazole-6-carboxamide]
Dose response curves with purified CAR LBD protein, reduction of basal CAR LBD/SRC-1 peptide FRET signal (inverse agonist)
  EC50: 15 nM
Screen of synthetic compound libraries, time resolved fluorescence ratio
  effect on basal fluorescent signal (CAR LBD/SRC-1 interaction): inverse agonist molecule that reduces the basal fluorescent signal
